Test results: PubChem BioAssay (NCI)
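Results reflect a 48-hour exposure of cells in 96-well plates to compound at five concentrations. The concentration for 50% growth inhibition is given as GI50. At the TGI there is no net growth.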

Assays:
Assay in all cases: NCI tumour cell line growth inhibition, 48 h
MDA-MB-435 = test system: MDA-MB-435
HT29 colon = test system: HT29 colon
HS 578T breast = test system: HS 578T breast
SK-MEL-5 melanoma = test system: SK-MEL-5 melanoma
RPMI-8226 leukemia = test system: RPMI-8226 leukemia
OVCAR-8 ovarian = test system: OVCAR-8 ovarian
HCC-2998 colon = test system: HCC-2998 colon
SNB-19 CNS = test system: SNB-19 CNS
HOP-92 NSCLC = test system: HOP-92 NSCLC
SF-539 CNS = test system: SF-539 CNS
UACC-257 melanoma = test system: UACC-257 melanoma
BT-549 breast = test system: BT-549 breast
MOLT-4 leukemia = test system: MOLT-4 leukemia
OVCAR-3 ovarian = test system: OVCAR-3 ovarian
SF-295 CNS = test system: SF-295 CNS
OVCAR-5 ovarian = test system: OVCAR-5 ovarian
DU-145 prostate = test system: DU-145 prostate
NCI-H522 lung = test system: NCI-H522 lung
NCI-H226 lung = test system: NCI-H226 lung
NCI-H23 lung = test system: NCI-H23 lung
CCRF-CEM leukemia = test system: CCRF-CEM leukemia
786-0 renal = test system: 786-0 renal
MCF7 breast = test system: MCF7 breast
UO-31 renal = test system: UO-31 renal
RXF 393 renal = test system: RXF 393 renal
A498 renal = test system: A498 renal
NCI/ADR-RES ovarian = test system: NCI/ADR-RES ovarian
SK-MEL-2 melanoma = test system: SK-MEL-2 melanoma
ACHN renal = test system: ACHN renal

Question: Which results are given for Cn1cc(C2=C(c3c4n(c5ccccc35)CCC(CN)C4)C(=O)NC2=O)c2ccccc21 (configuration not stated)?
Answer: TGI (MDA-MB-435): 5.97 µM; GI50 (HT29 colon): 2.67 µM; TGI (HT29 colon): 5.95 µM; GI50 (HS 578T breast): 1.55 µM; TGI (HS 578T breast): 8.2 µM; GI50 (SK-MEL-5 melanoma): 3.99 µM; TGI (SK-MEL-5 melanoma): 7.82 µM; GI50 (RPMI-8226 leukemia): 3.93 µM; TGI (RPMI-8226 leukemia): 9.61 µM; GI50 (OVCAR-8 ovarian): 3.77 µM; TGI (OVCAR-8 ovarian): 8.92 µM; GI50 (HCC-2998 colon): 3.49 µM; TGI (HCC-2998 colon): 7.14 µM; GI50 (SNB-19 CNS): 3.96 µM; TGI (SNB-19 CNS): 9.26 µM; GI50 (HOP-92 NSCLC): 5.25 µM; TGI (HOP-92 NSCLC): 12.3 µM; GI50 (SF-539 CNS): 3.63 µM; TGI (SF-539 CNS): 7.16 µM; GI50 (UACC-257 melanoma): 3.23 µM; TGI (UACC-257 melanoma): 6.68 µM; GI50 (BT-549 breast): 4.06 µM; TGI (BT-549 breast): 7.75 µM; GI50 (MOLT-4 leukemia): 2.19 µM; TGI (MOLT-4 leukemia): 6.73 µM; GI50 (OVCAR-3 ovarian): 3.58 µM; TGI (OVCAR-3 ovarian): 7.63 µM; GI50 (SF-295 CNS): 2.31 µM; TGI (SF-295 CNS): 6.09 µM; GI50 (OVCAR-5 ovarian): 2.94 µM; TGI (OVCAR-5 ovarian): 7.15 µM; GI50 (DU-145 prostate): 3.63 µM; TGI (DU-145 prostate): 7.02 µM; GI50 (NCI-H522 lung): 3.84 µM; TGI (NCI-H522 lung): 7.46 µM; GI50 (NCI-H226 lung): 3.34 µM; TGI (NCI-H226 lung): 11.1 µM; GI50 (NCI-H23 lung): 3.6 µM; TGI (NCI-H23 lung): 7.74 µM; GI50 (CCRF-CEM leukemia): 2.43 µM; TGI (CCRF-CEM leukemia): 7.23 µM; GI50 (786-0 renal): 4.25 µM; TGI (786-0 renal): 8.38 µM; GI50 (MCF7 breast): 2.06 µM; TGI (MCF7 breast): 6.5 µM; GI50 (UO-31 renal): 3.25 µM; TGI (UO-31 renal): 6.58 µM; GI50 (RXF 393 renal): 3.01 µM; TGI (RXF 393 renal): 6.47 µM; GI50 (A498 renal): 4.02 µM; TGI (A498 renal): 7.6 µM; GI50 (NCI/ADR-RES ovarian): 14.9 µM; TGI (NCI/ADR-RES ovarian): 25 µM; GI50 (SK-MEL-2 melanoma): 4.15 µM; TGI (SK-MEL-2 melanoma): 7.92 µM; GI50 (ACHN renal): 3.2 µM; TGI (ACHN renal): 7.02 µM
